What was measured:
HSD17B2 = HSD17B2 (Homo sapiens (Human), UniProt P37059); assay: HSD17B2 enzymatic blocking assay; format: biochemical; details: 1.8 μM Estradiol, 650 μM NAD; read-out: Inhibition of HSD17B2 IC50
Protocol: To screen compounds of the disclosure for their ability to block HSD17B2 function, an enzymatic blocking assay was performed. For the assay, HSD17B2 activity was measured by detecting NADH formation from oxidation of Estradiol using a NADH Glo luminescence assay (Promega, #Cat. No. G9062). Compounds of the disclosure were evaluated in a dose titration assay where the compounds were titrated at 10-point dose curve using an Echo-555 liquid handling dispenser. HSD17B2 (SEQ ID NO: 3, expressed in mammalian cells) was added at a final concentration of 2 ng/μL in a buffer containing 50 mM Tris-HCl, pH 7.5, Pluronic F-127 0.05%, Tween20 0.01%, BSA 0.01% into a low volume white 384-well assay plate. Compounds were incubated with the enzyme for 15 min at 20° C. The assay reaction was then initiated by addition of 1.8 μM Estradiol substrate (Sigma, catalog #E2758-250MG, CAS: 50-28-2) and 650 μM NAD co-factor, and the reaction mixture was incubated for 45 min at 20° C. DMSO at a concentration of 0.5% was used as a negative control and a ‘no substrate’ control was used a positive control in the assay. Detection reagent was then added as per manufacturer's instructions, and the plate was subsequently incubated in the dark for 1 hour at room temperature, NADH generated was detected in the luminescence mode on the Envision Perkin Elmer plate reader. The IC50 values were determined using Dotmatics analysis software.

HSD17B13 = HSD17B13 (Homo sapiens (Human), UniProt Q7Z5P4); assay: HSD17B13 enzymatic inhibition assay (150 nM or 50 nM HSD17B13); format: biochemical; details: 50 nM HSD17B13; read-out: Inhibition of 50 nM of HSD17B13 IC50
Chain of HSD17B13 (Q7Z5P4 other isoform, or with tags, fused parts or gaps): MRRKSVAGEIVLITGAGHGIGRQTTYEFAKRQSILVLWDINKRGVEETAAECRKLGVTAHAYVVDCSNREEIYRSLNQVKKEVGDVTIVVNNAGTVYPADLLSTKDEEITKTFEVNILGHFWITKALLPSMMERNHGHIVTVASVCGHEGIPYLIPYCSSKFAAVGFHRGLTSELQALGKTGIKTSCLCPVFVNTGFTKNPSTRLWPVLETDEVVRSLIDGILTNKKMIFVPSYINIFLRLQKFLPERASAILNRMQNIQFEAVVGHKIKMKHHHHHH

[1] = Microsome stability assay, human liver microsomes; format: in vitro ADME; details: 1 μM compound, 0.5 mg/mL microsomal protein; for microsomal CLint at 1 μM / half-life at 1 μM / microsomal CLint at 1 h, 1 µM / half-life at 1 h, 1 µM: human, human liver microsomes, pooled, NADPH, 37° C.; for microsomal CLint at 1 μM / microsomal CLint at 1 h, 1 µM: read-out: Microsome Stability Human liver microsomes Cl; for half-life at 1 μM / half-life at 1 h, 1 µM: read-out: Microsome Stability Human liver microsomes T½
Protocol: (§1) Compounds of the disclosure were screened in microsome stability assays. For the screen, test compounds were incubated at 37° C. with either human liver microsomes (Corning; #452117) or mouse liver microsomes (XenoTech; #M1000), pooled from multiple donors, at 1 μM in the presence of a NADPH regenerating system at 0.5 mg/mL microsomal protein. Positive controls included in the assay were testosterone (3A4 substrate), propafenone (2D6) and diclofenac (2C9). Samples were removed at different time points (0, 5, 10, 20, 30 and 60 minutes) and immediately mixed with cold acetonitrile containing internal standard (IS, 200 ng/mL tolbutamide and 200 ng/mL labetalol). Test compounds incubated with microsomes for 60 minutes without the NADPH regenerating system was also included. A single point for each test condition (n=1) was obtained, and samples were analyzed by LC/MS/MS. Disappearance of the test compound was assessed based on peak area ratios of analyte/IS (no standard curve).

[2] = Microsome stability assay, mouse liver microsomes; format: in vitro ADME; details: 1 μM compound, 0.5 mg/mL microsomal protein; for microsomal CLint at 1 μM / half-life at 1 μM / microsomal CLint at 1 h, 1 µM / half-life at 1 h, 1 µM: mouse, mouse liver microsomes, pooled, NADPH, 37° C.; for microsomal CLint at 1 μM / microsomal CLint at 1 h, 1 µM: read-out: Microsome Stability Mouse liver microsomes Cl; for half-life at 1 μM / half-life at 1 h, 1 µM: read-out: Microsome Stability Mouse liver microsomes T½
Protocol: as §1

Chain of HSD17B2 (P37059 other isoform, or with tags, fused parts or gaps): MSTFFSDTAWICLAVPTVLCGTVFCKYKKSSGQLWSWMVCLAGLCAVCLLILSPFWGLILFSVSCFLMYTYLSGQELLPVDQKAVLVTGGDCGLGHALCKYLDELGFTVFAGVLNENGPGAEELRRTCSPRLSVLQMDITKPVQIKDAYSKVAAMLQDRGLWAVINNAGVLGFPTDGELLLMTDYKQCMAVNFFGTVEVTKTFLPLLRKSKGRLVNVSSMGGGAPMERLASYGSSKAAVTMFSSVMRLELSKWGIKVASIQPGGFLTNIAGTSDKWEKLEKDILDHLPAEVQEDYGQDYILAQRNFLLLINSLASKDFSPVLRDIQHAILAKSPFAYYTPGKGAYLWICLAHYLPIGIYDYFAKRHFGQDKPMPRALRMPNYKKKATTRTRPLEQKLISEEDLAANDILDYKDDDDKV

Row | Compound | IC50 (HSD17B2) [µM] | IC50 (HSD17B13) [µM] | Microsome Stability Human liver microsomes % Remaining @60 min [1] [%] | microsomal CLint at 1 μM [1] [µL/min/mg] | half-life at 1 μM [1] [min] | Microsome Stability Mouse liver microsomes % Remaining @60 min [2] [%] | microsomal CLint at 1 μM [2] [µL/min/mg] | half-life at 1 μM [2] [min] | microsomal CLint at 1 h, 1 µM [1] [µL/min/mg] | half-life at 1 h, 1 µM [1] [min] | microsomal CLint at 1 h, 1 µM [2] [µL/min/mg] | half-life at 1 h, 1 µM [2] [min]
1 | C=Cc1ccc(C(NC(=O)c2ccc(C(F)(F)F)[nH]c2=O)c2ccccc2)cc1 (centres unmarked) [Compound 3A, 2-oxo-N-(phenyl(4-vinylphenyl)methyl)-6-(trifluoromethyl)-1,2-dihydropyridine-3-carboxamide] | 13.2 | 1.3 | – | – | – | – | – | – | – | – | – | –
2 | COc1ccc(C(C)(NC(=O)c2ccc(C(F)(F)F)[nH]c2=O)c2ccc(OC)cc2)cc1 [Compound 20A, N-(1,1-bis(4-methoxyphenyl)ethyl)-2-oxo-6-(trifluoromethyl)-1,2-dihydropyridine-3-carboxamide] | 2.27 | 1.56 | – | – | – | – | – | – | – | – | – | –
3 | O=C(NC(c1ccc(OC(F)F)cc1)c1ccc(OC(F)F)cc1)c1ccc(C(F)(F)F)[nH]c1=O [Compound 22, N-(bis(4-(difluoromethoxy)phenyl)methyl)-2-oxo-6-(trifluoromethyl)-1,2-dihydropyridine-3-carboxamide] | 12.8 | 0.89 | – | – | – | – | – | – | – | – | – | –
4 | O=C(NC1c2ccc(F)cc2-c2cc(F)ccc21)c1ccc(C(F)(F)F)[nH]c1=O [Compound 44, N-(3,6-difluoro-9H-fluoren-9-yl)-2-oxo-6-(trifluoromethyl)-1,2-dihydropyridine-3-carboxamide] | 12.8 | 0.53 | – | – | – | – | – | – | – | – | – | –
5 | CCC[C@H]1Oc2ccc(C)cc2[C@@H]1NC(=O)c1ccc(C(F)(F)F)[nH]c1=O [Compound 353, N-((2R,3S)-5-methyl-2-propyl-2,3-dihydrobenzofuran-3-yl)-2-oxo-6-(trifluoromethyl)-1,2-dihydropyridine-3-carboxamide] | – | 0.52 | 28.20 | 35.4 | 39.1 | 28.90 | 41.2 | 33.6 | – | – | – | –
6 | CCC[C@H]1Oc2cc(C)ccc2[C@@H]1NC(=O)c1ccc(C(F)(F)F)[nH]c1=O [Compound 358, N-((2R,3S)-6-methyl-2-propyl-2,3-dihydrobenzofuran-3-yl)-2-oxo-6-(trifluoromethyl)-1,2-dihydropyridine-3-carboxamide] | – | 0.46 | 1 | 154 | 9 | 1.01 | 154 | 9 | – | – | – | –
7 | Cc1ccc2c(c1)SC(C)CC2NC(=O)c1ccc(C(F)(F)F)[nH]c1=O (centres unmarked) [Compound 385, N-(2,7-dimethylthiochroman-4-yl)-2-oxo-6-(trifluoromethyl)-1,2-dihydropyridine-3-carboxamide] | – | 0.04 | 1 | – | – | 43 | – | – | 643 | 2.15 | 27 | 51.3
8 | CCC1Cc2cc(OC)ccc2C(NC(=O)c2ccc(C(F)(F)F)[nH]c2=O)C1 (centres unmarked) [Compound 390, N-(3-ethyl-6-methoxy-1,2,3,4-tetrahydronaphthalen-1-yl)-2-oxo-6-(trifluoromethyl)-1,2-dihydropyridine-3-carboxamide] | – | 0.07 | 11 | – | – | 62.80 | – | – | 151 | 9.15 | 16.8 | 82.3
9 | Cc1ccc(C(CC2CC2)NC(=O)c2ccc(C(F)(F)F)[nH]c2=O)cc1 (centres unmarked) [Compound 401, N-(2-cyclopropyl-1-(p-tolyl)ethyl)-2-oxo-6-(trifluoromethyl)-1,2-dihydropyridine-3-carboxamide] | – | 0.35 | 1.80 | – | – | 4 | – | – | 463 | 2.99 | 182 | 7.61
10 | CCC1CCc2cc(C)ccc2C1NC(=O)c1ccc(C(F)(F)F)[nH]c1=O (centres unmarked) [Compound 543, N-(2-ethyl-6-methyl-1,2,3,4-tetrahydronaphthalen-1-yl)-2-oxo-6-(trifluoromethyl)-1,2-dihydropyridine-3-carboxamide] | – | 0.05 | 0.36 | – | – | 25.30 | – | – | 364 | 3.81 | 43.6 | 31.8
11 | Cc1ccc(C(CC2CCC2)NC(=O)c2ccc(C(F)(F)F)[nH]c2=O)cc1 (centres unmarked) [Compound 557, N-(2-cyclobutyl-1-(p-tolyl)ethyl)-2-oxo-6-(trifluoromethyl)-1,2-dihydropyridine-3-carboxamide] | – | 0.14 | 1 | – | – | 65 | – | – | 437 | 3.17 | 14.4 | 96.3

Other lines, results leading:

Row | IC50 (HSD17B2) [µM] | IC50 (HSD17B13) [µM] | Microsome Stability Human liver microsomes % Remaining @60 min [1] [%] | microsomal CLint at 1 μM [1] [µL/min/mg] | half-life at 1 μM [1] [min] | Microsome Stability Mouse liver microsomes % Remaining @60 min [2] [%] | microsomal CLint at 1 μM [2] [µL/min/mg] | half-life at 1 μM [2] [min] | microsomal CLint at 1 h, 1 µM [1] [µL/min/mg] | half-life at 1 h, 1 µM [1] [min] | microsomal CLint at 1 h, 1 µM [2] [µL/min/mg] | half-life at 1 h, 1 µM [2] [min] | Compound
12 | – | 0.3 | 60.50 | 17 | 82 | 52.90 | 19.2 | 72.3 | – | – | – | – | CCC[C@@H]1C[C@@H](NC(=O)c2ccc(C(F)(F)F)[nH]c2=O)c2cc(C)ccc2N1 [Compound 361, N-((2R,4R)-6-methyl-2-propyl-1,2,3,4-tetrahydroquinolin-4-yl)-2-oxo-6-(trifluoromethyl)-1,2-dihydropyridine-3-carboxamide]
13 | – | 0.06 | 27.30 | 44.2 | 31.3 | 87 | < 9.6 | > 145 | – | – | – | – | CC[C@@H]1C[C@H](NC(=O)c2ccc(C(F)(F)F)[nH]c2=O)c2ccc(C)cc2N1 [Compound 366, N-((2R,4S)-2-ethyl-7-methyl-1,2,3,4-tetrahydroquinolin-4-yl)-2-oxo-6-(trifluoromethyl)-1,2-dihydropyridine-3-carboxamide]
14 | – | 0.37 | 51.70 | – | – | 56.20 | – | – | 23.4 | 59.3 | 18.1 | 76.4 | CCC[C@@H]1C[C@H](NC(=O)c2ccc(C(F)(F)F)[nH]c2=O)c2ccc(C)cc2N1 [Compound 368, N-((2R,4S)-7-methyl-2-propyl-1,2,3,4-tetrahydroquinolin-4-yl)-2-oxo-6-(trifluoromethyl)-1,2-dihydropyridine-3-carboxamide]
15 | – | 0.11 | 35.70 | – | – | 95.30 | < 9.6 | > 145 | 30.8 | 45 | – | – | CCC[C@@H]1C[C@@H](NC(=O)c2ccc(C(F)(F)F)[nH]c2=O)c2ccc(C)cc2N1 [Compound 369, N-((2R,4R)-7-methyl-2-propyl-1,2,3,4-tetrahydroquinolin-4-yl)-2-oxo-6-(trifluoromethyl)-1,2-dihydropyridine-3-carboxamide]
16 | – | 0.27 | 86.70 | < 9.6 | > 145 | 99.10 | < 9.6 | > 145 | – | – | – | – | Cc1ccc2c(c1)[C@H](NC(=O)c1ccc(C(F)(F)F)[nH]c1=O)C[C@@H](C)N2 [Compound 370, N-((2R,4R)-2,6-dimethyl-1,2,3,4-tetrahydroquinolin-4-yl)-2-oxo-6-(trifluoromethyl)-1,2-dihydropyridine-3-carboxamide]
